Test: Sun Screen Solubility (appearance of sunscreen dissolved in ester)
Type: physicochemical
Conditions: for Age Appearance: after 48 hours at room temperature, 24 hours in refrigerator (37° F.) and 48 hours at room temperature; for Initial Appearance: solvent ester not named

Row | Age Appearance (1% weight sunscreen) | Initial Appearance (1% weight sunscreen) | Age Appearance (3% weight sunscreen) | Initial Appearance (3% weight sunscreen) | SMILES
1 | Very Slight Haze^(2) | Clear | Very Slight Haze^(2) | Clear | COc1ccc(C(=O)c2ccccc2)c(O)c1 [Benzophenone 3]
2 | Clear | Clear | – | – | CCCCC(CC)COC(=O)C=Cc1ccc(OC)cc1 (stereo not drawn) [Octylmethoxyciminate]
